The values that follow come from ChEMBL document CHEMBL4419173, “Small-molecule inhibitors targeting g-protein-coupled rho guanine nucleotide exchange factors” (2014).

Each structure is given as a SMILES string. Activity calls are given as the source filed them. No cut-off for these calls is given here.

In assay [1] the target is Serine/threonine-protein kinase N1/Transforming protein RhoA (Homo sapiens) (UniProt Q16512+P61586). As to the kind of experiment: Inhibition of human PKN1 expressed in mouse NIH/3T3 cells assessed as reduction in human full length RhoA (1 to 193 residues) interaction with PKN1 at 50 to 200 uM incubated for 1 hr by Western blot analysis based His-RhoA pull-down assay. Format: cell-based.

A further assay relates to MCF7. As to the kind of experiment: Inhibition of RhoGEF in human MCF7 cells derived mammospheres assessed as inhibition of 10% calf serum-induced RhoA-GTP formation at 10 uM incubated for 24 hrs by densitometry relative to control. Format: cell-based.
Assay [2] has as its target T1, RhoGEF 1/Transforming protein RhoA (Homo sapiens) (UniProt P61586+Q92888). As to the kind of experiment: Binding affinity to human LARG (765 to 1138 residues) DH-PH module expressed in mouse NIH/3T3 cells assessed as reduction in LARG binding to human full length RhoA (1 to 193 residues) by measuring relative LARG binding level at 5 uM in presence of 5 uM Rhosin/G04 pull-down assay (reference value: 1 No unit). The format is cell-based.

The target of assay [3] is T1, RhoGEF 1/Transforming protein RhoA (Homo sapiens). As to the kind of experiment: Binding affinity to human LARG (765 to 1138 residues) DH-PH module expressed in mouse NIH/3T3 cells assessed as reduction in LARG binding to human full length RhoA (1 to 193 residues) by measuring relative LARG binding level at 5 uM pull-down assay (reference value: 1 No unit). The format is cell-based.

The target of assay [4] is Rho guanine nucleotide exchange factor 12 (Homo sapiens, UniProt Q9NZN5). As to the kind of experiment: Inhibition of human LARG (765 to 1138 residues) RhoGEF binding to human full length RhoA (1 to 193 residues) in presence of Rhosin/G04.
Assay [5] relates to Transforming protein RhoA (Homo sapiens), P61586 [Q63L]. As to the kind of experiment: Inhibition of constitutively active RhoA Q63L mutant (unknown origin) expressed in mouse NIH/3T3 cells assessed as reduction in 10% calf serum-induced phospho-MLC formation at 50 uM incubated for 24 hrs by densitometry. Format: cell-based.
A further assay is filed under the species Mus musculus. As to the kind of experiment: Inhibition of RhoGEF-mediated RhoA signaling in mouse NIH/3T3 cells assessed as inhibition of SDF1a-induced phospho-MLC formation at 10 to 30 uM incubated for 24 hrs by densitometry. The format is cell-based.
The target of assay [6] is A-kinase anchor protein 13/Transforming protein RhoA (Homo sapiens) (UniProt P61586+Q12802). As to the kind of experiment: Inhibition of FLAG-tagged human LBC RhoGEF DH-PH module expressed in mouse NIH/3T3 cells assessed as reduction in human full length RhoA (1 to 193 residues) interaction with LBC RhoGEF at 10 to 50 uM incubated for 1 hr by Western blot analysis based His-RhoA pull-down assay. Format: cell-based.

Chain of Transforming protein RhoA (Homo sapiens), P61586 [Q63L] (P61586 whole entry Q63L): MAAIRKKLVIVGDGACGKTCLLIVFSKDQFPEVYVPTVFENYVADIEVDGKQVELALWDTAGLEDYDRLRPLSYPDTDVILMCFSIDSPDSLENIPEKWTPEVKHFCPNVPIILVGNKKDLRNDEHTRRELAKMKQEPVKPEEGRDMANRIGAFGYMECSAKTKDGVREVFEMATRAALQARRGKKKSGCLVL
Chain of Rho guanine nucleotide exchange factor 12 (Q9NZN5 whole entry, the tested form may be a part): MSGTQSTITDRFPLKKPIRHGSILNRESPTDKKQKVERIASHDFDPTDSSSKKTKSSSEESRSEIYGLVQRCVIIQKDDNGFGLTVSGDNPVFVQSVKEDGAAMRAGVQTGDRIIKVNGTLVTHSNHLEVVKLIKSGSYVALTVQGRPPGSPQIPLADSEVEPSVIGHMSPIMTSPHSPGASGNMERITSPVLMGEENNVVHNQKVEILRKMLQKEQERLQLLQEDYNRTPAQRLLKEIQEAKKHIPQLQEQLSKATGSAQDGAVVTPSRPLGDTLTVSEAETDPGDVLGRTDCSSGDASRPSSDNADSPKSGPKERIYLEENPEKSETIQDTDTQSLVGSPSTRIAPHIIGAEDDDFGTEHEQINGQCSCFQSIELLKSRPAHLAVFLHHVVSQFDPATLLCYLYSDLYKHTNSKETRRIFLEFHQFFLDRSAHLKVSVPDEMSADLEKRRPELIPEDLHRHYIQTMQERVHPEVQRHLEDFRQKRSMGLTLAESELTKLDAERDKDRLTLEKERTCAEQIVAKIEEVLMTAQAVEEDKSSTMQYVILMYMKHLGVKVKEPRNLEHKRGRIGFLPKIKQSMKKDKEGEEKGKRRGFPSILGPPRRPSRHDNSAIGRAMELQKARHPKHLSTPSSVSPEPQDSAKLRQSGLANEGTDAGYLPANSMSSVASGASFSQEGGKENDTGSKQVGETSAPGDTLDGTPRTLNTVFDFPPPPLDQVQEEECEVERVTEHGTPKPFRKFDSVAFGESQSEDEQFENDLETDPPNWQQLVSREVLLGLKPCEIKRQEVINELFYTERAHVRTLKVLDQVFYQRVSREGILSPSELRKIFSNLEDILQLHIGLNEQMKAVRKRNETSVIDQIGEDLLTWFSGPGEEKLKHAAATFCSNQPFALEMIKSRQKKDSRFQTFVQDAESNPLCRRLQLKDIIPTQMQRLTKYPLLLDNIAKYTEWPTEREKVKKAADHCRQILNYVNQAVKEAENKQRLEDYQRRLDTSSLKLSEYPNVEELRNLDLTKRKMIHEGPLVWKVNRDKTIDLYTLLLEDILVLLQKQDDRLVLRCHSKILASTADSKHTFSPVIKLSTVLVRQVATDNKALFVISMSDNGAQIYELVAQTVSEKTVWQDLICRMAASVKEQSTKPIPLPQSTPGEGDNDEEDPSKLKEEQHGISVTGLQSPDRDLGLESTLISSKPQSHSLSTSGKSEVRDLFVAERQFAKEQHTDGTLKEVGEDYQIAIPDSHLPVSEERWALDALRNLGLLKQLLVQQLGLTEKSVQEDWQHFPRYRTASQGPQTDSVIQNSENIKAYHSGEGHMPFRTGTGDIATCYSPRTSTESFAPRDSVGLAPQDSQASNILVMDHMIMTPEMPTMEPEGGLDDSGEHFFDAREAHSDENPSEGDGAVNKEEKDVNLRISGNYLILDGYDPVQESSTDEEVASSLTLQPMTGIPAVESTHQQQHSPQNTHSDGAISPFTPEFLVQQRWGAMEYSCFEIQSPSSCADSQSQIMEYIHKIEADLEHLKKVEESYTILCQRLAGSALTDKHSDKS
Chain of Serine/threonine-protein kinase N1/Transforming protein RhoA (Homo sapiens) (P61586 whole entry, looked up, the tested form may be a part): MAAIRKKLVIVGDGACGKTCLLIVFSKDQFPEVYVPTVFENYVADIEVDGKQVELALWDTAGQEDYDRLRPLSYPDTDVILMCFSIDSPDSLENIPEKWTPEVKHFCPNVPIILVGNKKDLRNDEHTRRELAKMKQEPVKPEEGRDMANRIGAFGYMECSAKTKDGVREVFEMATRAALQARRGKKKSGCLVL
Chain of Serine/threonine-protein kinase N1/Transforming protein RhoA (Homo sapiens) (Q16512 whole entry, looked up, the tested form may be a part): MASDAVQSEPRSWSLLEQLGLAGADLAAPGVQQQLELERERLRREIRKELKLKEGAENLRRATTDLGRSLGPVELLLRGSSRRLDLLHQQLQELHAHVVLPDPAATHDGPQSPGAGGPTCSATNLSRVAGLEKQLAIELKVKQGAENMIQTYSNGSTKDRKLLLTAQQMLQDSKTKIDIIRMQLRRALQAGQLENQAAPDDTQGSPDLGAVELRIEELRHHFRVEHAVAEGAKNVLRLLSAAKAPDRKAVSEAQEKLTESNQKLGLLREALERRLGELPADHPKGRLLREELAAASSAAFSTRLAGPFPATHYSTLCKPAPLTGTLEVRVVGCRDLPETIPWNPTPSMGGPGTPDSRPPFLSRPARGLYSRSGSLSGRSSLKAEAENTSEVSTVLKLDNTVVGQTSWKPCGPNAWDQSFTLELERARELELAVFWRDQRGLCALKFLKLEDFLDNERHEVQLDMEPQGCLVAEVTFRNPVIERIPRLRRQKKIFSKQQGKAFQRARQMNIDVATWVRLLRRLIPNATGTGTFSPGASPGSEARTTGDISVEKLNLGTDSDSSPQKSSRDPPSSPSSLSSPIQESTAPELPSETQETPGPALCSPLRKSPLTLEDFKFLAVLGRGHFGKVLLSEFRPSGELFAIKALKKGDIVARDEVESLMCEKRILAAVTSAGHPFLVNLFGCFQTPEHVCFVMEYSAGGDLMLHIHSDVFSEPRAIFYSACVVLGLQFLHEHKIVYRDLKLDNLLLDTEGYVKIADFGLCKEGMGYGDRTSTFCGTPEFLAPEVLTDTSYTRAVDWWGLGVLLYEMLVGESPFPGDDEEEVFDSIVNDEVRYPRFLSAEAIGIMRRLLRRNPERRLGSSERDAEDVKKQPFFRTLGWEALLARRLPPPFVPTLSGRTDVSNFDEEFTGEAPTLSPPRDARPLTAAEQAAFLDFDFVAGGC

Turning to `Cc1cccc(COc2cccc(/C=C3\C(=O)NN(c4ccccc4)C3=O)c2)c1`, the inhibition result in assay [1], in assay [5] and in assay [6] was “inactive” each time. In addition, in the assay on MCF7, the inhibition was 50%. Also, the values for the fold change (FC) in assay [2] and in assay [3] were 0.28 and 0.73, respectively. In addition, in assay [4], the IC50 amounted to 1 µM. Moreover, the inhibition result in the assay listed under Mus musculus is “Active”.
